This is an account of results in US8445512B2, “Substituted quinoline-3-carboxamides as KCNQ2/3 modulators” (Gruenenthal GmbH, priority 2010, dated 2013).

The test addresses T1, KCNQ2/3 channels (Homo sapiens, UniProt O43525+O43526).
T1 construct: expressed in transfected cells
As to the kind of experiment: Fluorescence assay using a voltage sensitive dye (fluorimetry). The following applies: CHO-K1 cells expressing KCNQ2/3 channels; for Emax: relative to retigabine = 100%, read-out: Fluorimetry % efficacy (retigabine = 100%). In kind it is cell-based. The method, then:
Method I. Fluorescence Assay Using a Voltage Sensitive Dye (Fluorimetry)
[…] CHO-K1 cells expressing KCNQ2/3 channels are cultivated adherently at 37° C., 5% CO2 and 95% humidity in cell culture bottles (e.g. 80 cm^2 TC flasks, Nunc) with DMEM-high glucose (Sigma Aldrich, D7777) including 10% FCS (PAN Biotech, e.g. 3302-P270521) or alternatively MEM Alpha Medium (1×, liquid, Invitrogen, #22571), 10% fetal calf serum (FCS) (Invitrogen, #10270-106, heat-inactivated) and the necessary selection antibiotics.
Before being sown out for the measurements, the cells are washed with 1×DPBS buffer Ca^2+/Mg^2+-free (e.g. Invitrogen, #14190-094) and detached from the bottom of the culture vessel by using Accutase (PAA Laboratories, #L11-007) (incubation with Accutase for 15 min at 37° C.). The cell number is determined using a CASY™ cell counter (TCC, Schärfe System). Depending on the optimal density for each individual cell line, 20,000-30,000 cells/well/100 μl are seeded onto 96-well Corning™ CellBIND™ assay plates (Flat Clear Bottom Black Polystyrene Microplates, #3340). Freshly seeded cells are then left to settle for one hour at room temperature, followed by incubation for 24 hours at 37° C., 5% CO2 and 95% humidity.
The voltage-sensitive fluorescent dye from the Membrane Potential Assay Kit (Red™ Bulk format part R8123 for FLIPR, MDS Analytical Technologies™) is prepared by dissolving the contents of one vessel Membrane Potential Assay Kit Red Component A in 200 ml of extracellular buffer (ES buffer, 120 mM NaCl, 1 mM KCl, 10 mM HEPES, 2 mM CaCl2, 2 mM MgCl2, 10 mM glucose; pH 7.4). After removal of the nutrient medium, the cells are washed once with 200 μl of ES buffer, then loaded for 45 min at room temperature in 100 μl of dye solution in the dark.
Fluorescence measurements are carried out in a BMG Labtech FLUOstar™, BMG Labtech NOVOstar™ or BMG Labtech POLARstar™ instrument (525 nm excitation, 560 nm emission, Bottom Read mode). After incubation with the dye, 50 μl of the test substances in the desired concentrations, or 50 μl of ES buffer for control purposes, are applied to the wells of the assay plate and incubated for 30 min at room temperature while being shielded from light. The fluorescence intensity of the dye is then measured for 5 min and the fluorescence value F1 of each well is thus determined at a given, constant time. 15 μl of a KCl solution are then added to each well (final concentration of potassium ions 92 mM). The change in fluorescence intensity is subsequently monitored until all the relevant values have been obtained (mainly 5-30 min). At a given time post KCl application, a fluorescence value F2 is determined, in this case at the time of the fluorescence peak.
For calculation, the fluorescence intensity F2 is corrected for the fluorescence intensity F1, and the activity (ΔF/F) of the target compound on the potassium channel is determined as follows:
In order to determine whether a substance has agonistic activity,
[formula] can be related to
[formula] of control wells.
[formula] is determined by adding to the well only the buffer solution instead of the test substance, determining the value F1K of the fluorescence intensity, adding the potassium ions as described above, and measuring a value F2K of the fluorescence intensity. F2K and F1K are then calculated as follows: […]
A substance has an agonistic activity on the potassium channel if
[formula] is greater than
Independently of the comparison of
[formula] it is possible to conclude that a target compound has agonistic activity if
[formula] increases dose dependently. Calculations of EC50 and IC50 values are carried out with the aid of ‘Prism v4.0’ software (GraphPad Software™) Method II. Low-Intensity Tail Flick Test (Rat)

Molecules are shown by their SMILES. pEC50: −log10 of the molar value.

The pEC50 is the negative decadic logarithm of the EC50, by convention in mol/L. Low readings indicate a high EC50, high ones a low EC50. Turning to `CCCc1nc2cc(C(F)(F)F)ccc2c(C)c1C(=O)NCc1cccs1` [Example 1, 4-Methyl-2-propyl-N-(thiophen-2-yl-methyl)-7-(trifluoromethyl)-quinoline-3-carboxylic acid amide], the pEC50 is 6.80 and the Emax was 140%.
Consider `CCCc1nc2cc(C(F)(F)F)ccc2c(C)c1C(=O)NCC1CCCCCC1` [Example 2, N-(Cycloheptyl-methyl)-4-methyl-2-propyl-7-(trifluoromethyl)-quinoline-3-carboxylic acid amide], for which the pEC50 is 6.49 and the Emax came to 104%.
The like results for `CCCc1nc2cc(C(F)(F)F)ccc2c(C)c1C(=O)NCc1cccc(F)c1` [Example 4, N-[(3-Fluorophenyl)-methyl]-4-methyl-2-propyl-7-(trifluoromethyl)-quinoline-3-carboxylic acid amide] were, in that order, 7.03 and 138%.
The like results for `CCc1nc2cc(C(F)(F)F)ccc2c(C)c1C(=O)NCc1ccc(F)cc1` [Example 5, 2-Ethyl-N-[(4-fluorophenyl)-methyl]-4-methyl-7-(trifluoromethyl)-quinoline-3-carboxylic acid amide] were, in that order, 6.58 and 157%.
Take `CC(C)c1nc2cc(C(F)(F)F)ccc2cc1C(=O)NCc1cccc(F)c1` [Example 11, N-[(3-Fluorophenyl)-methyl]-2-isopropyl-7-(trifluoromethyl)-quinoline-3-carboxylic acid amide]: the pEC50 is 6.61 and the Emax stood at 166%.
Regarding `CC(C)c1nc2cc(C(F)(F)F)ccc2cc1C(=O)NCc1ccc(F)cc1` [Example 12, N-[(4-Fluorophenyl)-methyl]-2-isopropyl-7-(trifluoromethyl)-quinoline-3-carboxylic acid amide], the negative-log EC50 (pEC50) was 6.82 and the Emax stood at 137%.
Take `CC(C)(C)c1nc2cc(C(F)(F)F)ccc2cc1C(=O)NCc1cccc(F)c1` [Example 13, 2-tert-Butyl-N-[(3-fluorophenyl)-methyl]-7-(trifluoromethyl)-quinoline-3-carboxylic acid amide]: the pEC50 was 6.08 and the Emax is 125%.
For `CC(C)(C)c1nc2cc(C(F)(F)F)ccc2cc1C(=O)NCc1ccc(F)cc1` [Example 14, 2-tert-Butyl-N-[(4-fluorophenyl)-methyl]-7-(trifluoromethyl)-quinoline-3-carboxylic acid amide], in that order: 6.13 and 144%.
The like results for `Cc1c(C(=O)NCc2cccc(F)c2)c(CO)nc2cc(C(F)(F)F)ccc12` [Example 17, N-[(3-fluorophenyl)-methyl]-2-(hydroxymethyl)-4-methyl-7-(trifluoromethyl)-quinoline-3-carboxylic acid amide] were, in that order, 5.54 and 102%.
Regarding `Cc1c(C(=O)NCc2cccc(F)c2)c(CC(C)(C)C)nc2cc(C(F)(F)F)ccc12` [Example 18, 2-(2,2-dimethyl-propyl)-N-[(3-fluorophenyl)-methyl]-4-methyl-7-(trifluoromethyl)-quinoline-3-carboxylic acid amide], the pEC50 was 7.04 and the Emax was found to be 187%.
For `Cc1c(C(=O)NCc2ccc(F)cc2)c(CC(C)(C)C)nc2cc(C(F)(F)F)ccc12` [Example 19, 2-(2,2-Dimethyl-propyl)-N-[(4-fluorophenyl)-methyl]-4-methyl-7-(trifluoromethyl)-quinoline-3-carboxylic acid amide], in that order: 6.92 and 149%.
On to `Cc1c(C(=O)NCc2cccc(F)c2)c(C2CCCC2)nc2cc(C(F)(F)F)ccc12` [Example 20, 2-Cyclopentyl-N-[(3-fluorophenyl)-methyl]-4-methyl-7-(trifluoromethyl)-quinoline-3-carboxylic acid amide], for which the pEC50 is 7.31 and the Emax amounted to 185%.
For the molecule `Cc1c(C(=O)NCc2ccc(F)cc2)c(C2CCCC2)nc2cc(C(F)(F)F)ccc12` [Example 21, 2-Cyclopentyl-N-[(4-fluorophenyl)-methyl]-4-methyl-7-(trifluoromethyl)-quinoline-3-carboxylic acid amide], the pEC50 was 6.65 and the Emax came out at 178%.
Take `CCCc1nc2cc(C(F)(F)F)ccc2c(C)c1C(=O)NCCCC(C)(C)C` [Example 22, N-(4,4-Dimethyl-pentyl)-4-methyl-2-propyl-7-(trifluoromethyl)-quinoline-3-carboxylic acid amide]: the pEC50 was 6.73 and the Emax came to 277%.
In the case of `C/C=C/c1nc2cc(C(F)(F)F)ccc2c(C)c1C(=O)NCc1cccc(F)c1` [Example 23, N-[(3-fluorophenyl)-methyl]-4-methyl-2-[(E)-prop-1-enyl]-7-(trifluoromethyl)-quinoline-3-carboxylic acid amide], the pEC50 is 6.35 and the Emax stood at 130%.
The like results for `CC(C)=Cc1nc2cc(C(F)(F)F)ccc2c(C)c1C(=O)NCc1cccc(F)c1` [Example 24, N-[(3-fluorophenyl)-methyl]-4-methyl-2-(2-methyl-prop-1-enyl)-7-(trifluoromethyl)-quinoline-3-carboxylic acid amide] were, in that order, 6.79 and 171%.
With `Cc1c(C(=O)NCc2cccc(F)c2)c(CN(C)C)nc2cc(C(F)(F)F)ccc12` [Example 31, 2-(dimethylaminomethyl)-N-[(3-fluorophenyl)-methyl]-4-methyl-7-(trifluoromethyl)-quinoline-3-carboxylic acid amide], the pEC50 is 5.73 and the Emax was 40%.
As to `CCc1nc2cc(C(F)(F)F)ccc2c(C)c1C(=O)NCc1ccc(F)c(C)c1` [Example 32, 2-Ethyl-N-[(4-fluoro-3-methyl-phenyl)-methyl]-4-methyl-7-(trifluoromethyl)-quinoline-3-carboxylic acid amide], the pEC50 was 6.50 and the Emax was determined as 133%.
For `CCc1nc2cc(C#N)ccc2c(C)c1C(=O)NCc1cccc(F)c1` [Example 33, 7-Cyano-2-ethyl-N-[(3-fluorophenyl)-methyl]-4-methyl-quinoline-3-carboxylic acid amide], the pEC50 was 5.99 and the Emax is 121%.
For `CCc1nc2cc(C(F)(F)F)ccc2c(C)c1C(=O)NCc1ccc(C)c(F)c1` [Example 34, 2-Ethyl-N-[(3-fluoro-4-methyl-phenyl)-methyl]-4-methyl-7-(trifluoromethyl)-quinoline-3-carboxylic acid amide], in that order: 6.51 and 139%.
As to `CCc1nc2cc(C#N)ccc2c(C)c1C(=O)NCc1ccc(F)cc1` [Example 35, 7-Cyano-2-ethyl-N-[(4-fluorophenyl)-methyl]-4-methyl-quinoline-3-carboxylic acid amide], the negative logarithm of the EC50 (pEC50) is 6.24 and the Emax was found to be 97%.
As for `Cc1c(C(=O)NCc2cccc(F)c2)c(CC(C)C)nc2cc(C(F)(F)F)ccc12` [Example 36, N-[(3-Fluorophenyl)-methyl]-4-methyl-2-(2-methyl-propyl)-7-(trifluoromethyl)-quinoline-3-carboxylic acid amide], the pEC50 was 7.09 and the Emax was 154%.
Turning to `Cc1c(C(=O)NCc2cccc(F)c2)c(C2CC2)nc2cc(C#N)ccc12` [Example 37, 7-Cyano-2-cyclopropyl-N-[(3-fluorophenyl)-methyl]-4-methyl-quinoline-3-carboxylic acid amide], the pEC50 was 6.97 and the Emax stood at 128%.
